ChEMBL document CHEMBL1201862, “PubChem BioAssay data set” (2004)
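Exposure lasted 48 hours, with cells grown in 96-well plates and compounds tested at five concentrations. GI50 marks 50% less growth.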 The source made the active and inactive calls. No stated cut-off is given here; in the data, active = GI50 up to about 1.1 µM and inactive = higher.

What was measured:
Experiment in all cases: NCI tumour cell line growth inhibition, 48 h
786-0 = system: 786-0
A498 = system: A498
A549 = system: A549
ACHN = system: ACHN
BT-549 = system: BT-549
CAKI-1 = system: CAKI-1
CCRF-CEM = system: CCRF-CEM
COLO 205 = system: COLO 205
DU-145 = system: DU-145
EKVX = system: EKVX
HCC 2998 = system: HCC 2998
HCT-116 = system: HCT-116
HCT-15 = system: HCT-15
HL-60 = system: HL-60
HOP-92 = system: HOP-92
HT-29 = system: HT-29
Hs-578T = system: Hs-578T
IGROV-1 = system: IGROV-1
K562 = system: K562
KM12 = system: KM12
LOX IMVI = system: LOX IMVI
M14 = system: M14
MCF7 = system: MCF7
MDA-MB-231 = system: MDA-MB-231
MDA-MB-435 = system: MDA-MB-435
MDA-N = system: MDA-N
MOLT-4 = system: MOLT-4
Malme-3M = system: Malme-3M
NCI-H226 = system: NCI-H226
NCI-H23 = system: NCI-H23
NCI-H460 = system: NCI-H460
NCI-H522 = system: NCI-H522
NCI/ADR-RES = system: NCI/ADR-RES
OVCAR-3 = system: OVCAR-3
OVCAR-4 = system: OVCAR-4
OVCAR-5 = system: OVCAR-5
OVCAR-8 = system: OVCAR-8
PC-3 = system: PC-3
RPMI-8226 = system: RPMI-8226
SF-268 = system: SF-268
SF-295 = system: SF-295
SF-539 = system: SF-539
SK-MEL-28 = system: SK-MEL-28
SK-MEL-2 = system: SK-MEL-2
SK-MEL-5 = system: SK-MEL-5
SK-OV-3 = system: SK-OV-3
SN12C = system: SN12C
SNB-19 = system: SNB-19
SW-620 = system: SW-620
T47D = system: T47D
TK-10 = system: TK-10
U-251 = system: U-251
UACC-257 = system: UACC-257
UACC-62 = system: UACC-62
UO-31 = system: UO-31
HOP-62 = system: HOP-62
RXF 393 = system: RXF 393
SNB-75 = system: SNB-75
SR = system: SR

## Cc1ccccc1NC(=O)C(=O)Cc1cnc2ccccc2n1
786-0
  GI50: > 100 µM (inactive)
A498
  GI50: > 100 µM (inactive)
A549
  GI50: > 100 µM (inactive)
ACHN
  GI50: > 100 µM (inactive)
BT-549
  GI50: > 100 µM (inactive)
CAKI-1
  GI50: > 100 µM (inactive)
CCRF-CEM
  GI50: 69.8 µM (inactive)
COLO 205
  GI50: > 100 µM (inactive)
DU-145
  GI50: > 100 µM (inactive)
EKVX
  GI50: > 100 µM (inactive)
HCC 2998
  GI50: > 100 µM (inactive)
HCT-116
  GI50: > 100 µM (inactive)
HCT-15
  GI50: > 100 µM
HL-60
  GI50: > 100 µM (inactive)
HOP-92
  GI50: > 100 µM (inactive)
HT-29
  GI50: > 100 µM (inactive)
Hs-578T
  GI50: > 100 µM (inactive)
IGROV-1
  GI50: > 100 µM (inactive)
K562
  GI50: > 100 µM (inactive)
KM12
  GI50: > 100 µM (inactive)
LOX IMVI
  GI50: > 100 µM (inactive)
M14
  GI50: > 100 µM (inactive)
MCF7
  GI50: > 100 µM (inactive)
MDA-MB-231
  GI50: > 100 µM (inactive)
MDA-MB-435
  GI50: > 100 µM (inactive)
MDA-N
  GI50: > 100 µM (inactive)
MOLT-4
  GI50: > 100 µM (inactive)
Malme-3M
  GI50: > 100 µM (inactive)
NCI-H226
  GI50: > 100 µM (inactive)
NCI-H23
  GI50: > 100 µM (inactive)
NCI-H460
  GI50: > 100 µM (inactive)
NCI-H522
  GI50: > 100 µM (inactive)
NCI/ADR-RES
  GI50: > 100 µM (inactive)
OVCAR-3
  GI50: > 100 µM (inactive)
OVCAR-4
  GI50: > 100 µM (inactive)
OVCAR-5
  GI50: > 100 µM (inactive)
OVCAR-8
  GI50: > 100 µM (inactive)
PC-3
  GI50: > 100 µM (inactive)
RPMI-8226
  GI50: > 100 µM (inactive)
SF-268
  GI50: > 100 µM (inactive)
SF-295
  GI50: > 100 µM (inactive)
SF-539
  GI50: > 100 µM (inactive)
SK-MEL-28
  GI50: > 100 µM (inactive)
SK-MEL-2
  GI50: > 100 µM (inactive)
SK-MEL-5
  GI50: > 100 µM (inactive)
SK-OV-3
  GI50: > 100 µM (inactive)
SN12C
  GI50: > 100 µM (inactive)
SNB-19
  GI50: > 100 µM (inactive)
SW-620
  GI50: > 100 µM (inactive)
T47D
  GI50: > 100 µM (inactive)
TK-10
  GI50: > 100 µM (inactive)
U-251
  GI50: > 100 µM (inactive)
UACC-257
  GI50: > 100 µM (inactive)
UACC-62
  GI50: > 100 µM (inactive)
UO-31
  GI50: > 100 µM (inactive)

## C=CCN(c1cc(OCc2ccccc2)c(NC(C)=O)cc1[N+](=O)[O-])S(C)(=O)=O
786-0
  GI50: 20.6 µM (inactive)
A498
  GI50: 19.3 µM (inactive)
A549
  GI50: 33.2 µM (inactive)
ACHN
  GI50: 52.7 µM (inactive)
BT-549
  GI50: 28.8 µM (inactive)
CAKI-1
  GI50: 42 µM (inactive)
CCRF-CEM
  GI50: > 100 µM (inactive)
COLO 205
  GI50: > 100 µM (inactive)
DU-145
  GI50: > 100 µM (inactive)
EKVX
  GI50: 7.05 µM (inactive)
HCC 2998
  GI50: > 100 µM (inactive)
HCT-116
  GI50: 28.5 µM (inactive)
HCT-15
  GI50: > 100 µM
HL-60
  GI50: > 100 µM (inactive)
HOP-62
  GI50: 22 µM (inactive)
HOP-92
  GI50: 19.2 µM (inactive)
HT-29
  GI50: > 100 µM (inactive)
Hs-578T
  GI50: 24.2 µM (inactive)
IGROV-1
  GI50: 21.1 µM (inactive)
K562
  GI50: > 100 µM (inactive)
KM12
  GI50: > 100 µM (inactive)
LOX IMVI
  GI50: 50.6 µM (inactive)
M14
  GI50: 38.3 µM (inactive)
MCF7
  GI50: 52.2 µM (inactive)
MDA-MB-231
  GI50: 15.7 µM (inactive)
MDA-MB-435
  GI50: > 100 µM (inactive)
MDA-N
  GI50: > 100 µM (inactive)
MOLT-4
  GI50: > 100 µM (inactive)
Malme-3M
  GI50: 26.7 µM (inactive)
NCI-H226
  GI50: 12.7 µM (inactive)
NCI-H23
  GI50: 18.4 µM (inactive)
NCI-H460
  GI50: > 100 µM (inactive)
NCI-H522
  GI50: 35.5 µM (inactive)
NCI/ADR-RES
  GI50: 29.6 µM (inactive)
OVCAR-3
  GI50: 34.9 µM (inactive)
OVCAR-4
  GI50: > 100 µM (inactive)
OVCAR-5
  GI50: > 100 µM (inactive)
OVCAR-8
  GI50: 23.1 µM (inactive)
PC-3
  GI50: > 100 µM (inactive)
RPMI-8226
  GI50: 46.7 µM (inactive)
RXF 393
  GI50: 18.7 µM (inactive)
SF-268
  GI50: 21.3 µM (inactive)
SF-295
  GI50: 23.5 µM (inactive)
SF-539
  GI50: 17.2 µM (inactive)
SK-MEL-28
  GI50: > 100 µM (inactive)
SK-MEL-2
  GI50: 26.9 µM (inactive)
SK-MEL-5
  GI50: > 100 µM (inactive)
SK-OV-3
  GI50: 17.9 µM (inactive)
SN12C
  GI50: 29 µM (inactive)
SNB-19
  GI50: 17.9 µM (inactive)
SNB-75
  GI50: 20 µM (inactive)
SW-620
  GI50: > 100 µM (inactive)
T47D
  GI50: 29.3 µM (inactive)
TK-10
  GI50: 36.5 µM (inactive)
UACC-257
  GI50: > 100 µM (inactive)
UACC-62
  GI50: 58.9 µM (inactive)
UO-31
  GI50: 33.1 µM (inactive)

## CCc1cccc(CC)c1Nc1nc(-c2ccccc2-c2ccccc2)cs1
786-0
  GI50: > 100 µM (inactive)
A498
  GI50: > 100 µM (inactive)
A549
  GI50: > 100 µM (inactive)
ACHN
  GI50: > 100 µM (inactive)
BT-549
  GI50: 18.2 µM (inactive)
CAKI-1
  GI50: > 100 µM (inactive)
CCRF-CEM
  GI50: > 100 µM (inactive)
COLO 205
  GI50: 66.5 µM (inactive)
DU-145
  GI50: > 100 µM (inactive)
EKVX
  GI50: > 100 µM (inactive)
HCC 2998
  GI50: > 100 µM (inactive)
HCT-116
  GI50: 51.2 µM (inactive)
HCT-15
  GI50: 94.2 µM
HL-60
  GI50: 55.7 µM (inactive)
HOP-62
  GI50: > 100 µM (inactive)
HOP-92
  GI50: 46.6 µM (inactive)
Hs-578T
  GI50: 70.6 µM (inactive)
IGROV-1
  GI50: 43.7 µM (inactive)
K562
  GI50: 51.5 µM (inactive)
KM12
  GI50: 94.8 µM (inactive)
LOX IMVI
  GI50: > 100 µM (inactive)
M14
  GI50: 92.9 µM (inactive)
MCF7
  GI50: 66.2 µM (inactive)
MDA-MB-231
  GI50: > 100 µM (inactive)
MDA-MB-435
  GI50: 35 µM (inactive)
MDA-N
  GI50: 50.8 µM (inactive)
MOLT-4
  GI50: 75.2 µM (inactive)
Malme-3M
  GI50: > 100 µM (inactive)
NCI-H23
  GI50: 93.8 µM (inactive)
NCI-H460
  GI50: 65.3 µM (inactive)
NCI-H522
  GI50: 84.7 µM (inactive)
OVCAR-3
  GI50: 57.1 µM (inactive)
OVCAR-4
  GI50: > 100 µM (inactive)
OVCAR-5
  GI50: > 100 µM (inactive)
PC-3
  GI50: 53.2 µM (inactive)
RPMI-8226
  GI50: 30.3 µM (inactive)
RXF 393
  GI50: > 100 µM (inactive)
SF-268
  GI50: > 100 µM (inactive)
SF-295
  GI50: > 100 µM (inactive)
SF-539
  GI50: > 100 µM (inactive)
SK-MEL-28
  GI50: > 100 µM (inactive)
SK-MEL-2
  GI50: > 100 µM (inactive)
SK-MEL-5
  GI50: 79.1 µM (inactive)
SK-OV-3
  GI50: > 100 µM (inactive)
SN12C
  GI50: > 100 µM (inactive)
SNB-19
  GI50: > 100 µM (inactive)
SNB-75
  GI50: 29.5 µM (inactive)
SR
  GI50: 52.1 µM (inactive)
SW-620
  GI50: > 100 µM (inactive)
T47D
  GI50: > 100 µM (inactive)
TK-10
  GI50: 82.2 µM (inactive)
U-251
  GI50: 54.8 µM (inactive)
UACC-257
  GI50: > 100 µM (inactive)
UACC-62
  GI50: 86.5 µM (inactive)
UO-31
  GI50: 64.4 µM (inactive)
